Tests used:
[1] = Pooled metabolic analysis, 6-week studies: body weight; settings: for ≧7% weight decrease, (%) / ≧7% weight increase, (%) / Weight, Mean (SD) change from baseline: 6-week placebo controlled trials, BX total doses, RISP 6 mg, OLZ 15 mg, HAL 10 mg; for Weight, Mean (SD) change from baseline: endpoint
Source text: OBJECTIVE: To examine the metabolic effects of bifeprunox in patients with acute and stable schizophrenia.
METHODS: Metabolic data was compiled from one 6-month and four 6-week studies (i.e., a treatment period) of bifeprunox in patients with stable and acute schizophrenia, respectively. In the 6-month study, patients received bifeprunox (n=331) or placebo (PBO) (n=166). […] Metabolic evaluations included body weight, body mass index (BMI), plasma glucose and lipid profiles. Fasting glucose and lipid values were assessed in one 6-week study and in the 6-month study. Triglyceride:HDL ratio (TG:HDL) was calculated as a marker of insulin resistance. No statistical analyses were performed; only descriptive statistics are presented.

[2] = Body weight, Clinical Study Three
Source text: To assess the safety and tolerability of bifeprunox using physical examination, weight, waist circumference, vital signs (pulse rate and systolic/diastolic blood pressure [BP], and oral temperature), 12-lead electrocardiogram (ECG), clinical laboratory assessments (hematology, biochemistry including fasting insulin level, fasting glucose, fasting lipid profile, urinalysis, special laboratory assessments for prolactin, IGF-1, IGFBP-3, and thyroid function), need for anticholinergic treatment during double-blind treatment period, concomitant medication use, adverse event (AE) monitoring, and assessments of abnormal movement including the Simpson-Angus Scale (SAS), Barnes Akathisia Scale (BAS), and Abnormal Involuntary Movement Scale (AIMS).

[3] = tested on: adult subjects with schizophrenia; assay: PANSS negative symptom subscale score, Clinical Study Three; format: in vivo, human; settings: for Change from Baseline in PANSS Negative Symptom Subscale Score, Mean (SD) / Change from Baseline in PANSS Negative Symptom Subscale Score, Median / Trt Effect (bifeprunox - placebo), PANSS Negative Symptom Subscale Score / mean change (SD) from Baseline to Endpoint in PANSS Negative Symptom subscale score: LOCF; for Change from Baseline in PANSS Negative Symptom Subscale Score, Mean (SD) / Change from Baseline in PANSS Negative Symptom Subscale Score, Median / Trt Effect (bifeprunox - placebo), PANSS Negative Symptom Subscale Score: ITT population; for Trt Effect (bifeprunox - placebo), PANSS Negative Symptom Subscale Score: ANCOVA; for PANSS Negative Symptom subscale score, treatment effect (bifeprunox—placebo): Endpoint LOCF; for mean change (SD) from Baseline to Endpoint in PANSS Negative Symptom subscale score: ITT
Source text: SECONDARY OBJECTIVES To assess the efficacy of bifeprunox in treating schizophrenia using the Positive Symptom sub-scale score of the PANSS, the Negative Symptom sub-scale score of the PANSS, the General Psychopathology sub-scale of the PANSS, Brief Psychiatric Rating Scale (BPRS) total score derived from the PANSS, BPRS psychosis score derived from the PANSS, the Clinical Global Impression Severity of Illness score (CGI-S), the Clinical Global Impression Improvement score (CGI-I), CGI-I responder rate, PANSS responder rate based on the PANSS total score, Calgary Depression Scale for Schizophrenia (CDSS), and Subject Satisfaction rating.
There were four treatment arms in this study, approximately 144 subjects per arm. […] After completing the Single-Blind Placebo Lead-in Period of at least three days, bifeprunox-treated subjects were titrated from 0.25 mg up to 20 mg/day or 30 mg/day according to a standardized titration scheme over a seven- or eight-day period, respectively. When the assigned dose was reached, subjects were maintained at that dose for the remainder of the six week treatment period. […] Subjects were hospitalized (if not already inpatients) after eligibility for study entry was verified, starting from the Screening Visit until at least 10 days after Baseline. Subjects could be hospitalized longer than 10 days if considered medically necessary by the Investigator. Rating scale assessments for efficacy and abnormal movement disorders were done weekly except for Week 5. […] Subject satisfaction with study medication was assessed at Week 6.

[4] = tested on: adult subjects with schizophrenia; assay: PANSS general psychopathology subscale score, Clinical Study One; format: in vivo, human; settings: Bifeprunox 5 mg, ITT population
Procedure: There were five treatment groups in this study. […] Study medication was administered once daily. After Baseline measurements were performed, the titration phase was begun. Bifeprunox treated subjects were titrated up to 5 mg, 10 mg or 20 mg according to a standardized titration schedule (Day 1: 0.125 mg, Day 2: 0.25 mg, Day 3: 0.5 mg, Day 4: 1.0 mg, Day 5: 2.0 mg, Day 6: 5.0 mg, Day 7: 10.0 mg, Day 8: 20 mg). When the assigned dose was reached, subjects were maintained at that dose for the remainder of the six-week treatment period.
The change in the Positive and Negative Symptom Scale (PANSS) total score, from baseline to endpoint, was the primary outcome measure. Secondary efficacy measures included: PANSS positive, PANSS negative, PANSS general psychopathology (GPP) score, PANSS-derived Brief Psychiatric Rating Scale (BPRS) score, Clinical Global Impressions-Severity of Illness (CGI-S), CGI-Improvement (CGI-I) scores, and responder rates. Safety and tolerability evaluations included extrapyramidal symptoms (EPS), weight gain, lipid profile, and serum prolactin.

[5] = Bifeprunox 20 mg, Week 6/Endpoint
[6] = Bifeprunox 30 mg, Week 6/Endpoint

O=c1[nH]c2cccc(N3CCN(Cc4cccc(-c5ccccc5)c4)CC3)c2o1 [Bifeprunox, 7-[4-([1,1′-biphenyl]-3-ylmethyl)-1-piperazinyl]-2(3H)-benzoxazolone]
≧7% weight decrease, (%) ([1]; baseline BMI 18.5-25 kg/m^2): 5.4%
≧7% weight increase, (%) ([1]; baseline BMI 18.5-25 kg/m^2): 2.4%
≧7% weight decrease, (%) ([1]; baseline BMI <18.5 kg/m^2): 3.7%
≧7% weight increase, (%) ([1]; baseline BMI <18.5 kg/m^2): 3.7%
≧7% weight decrease, (%) ([1]; baseline BMI >25-30 kg/m^2): 8.8%
≧7% weight increase, (%) ([1]; baseline BMI >25-30 kg/m^2): 1.8%
≧7% weight decrease, (%) ([1]; baseline BMI >30 kg/m^2): 5.8%
≧7% weight increase, (%) ([1]; baseline BMI >30 kg/m^2): 1.4%
≧7% weight decrease, (%) ([1]; baseline BMI All): 6.2%
≧7% weight increase, (%) ([1]; baseline BMI All): 2.1%
Weight, Mean (SD) change from baseline ([1]; baseline BMI 18.5-25 kg/m^2): −0.4 (2.6) kg
Weight, Mean (SD) change from baseline ([1]; baseline BMI <18.5 kg/m^2): 0.0 (1.7) kg
Weight, Mean (SD) change from baseline ([1]; baseline BMI >25-30 kg/m^2): −0.9 (3.2) kg
Weight, Mean (SD) change from baseline ([1]; baseline BMI >30 kg/m^2): −1.4 (3.9) kg
Weight, Mean (SD) change from baseline ([1]; baseline BMI All): −0. (3.2) kg
mean weight decrease ([1]; 6-week studies, pooled): 0.8 kg
mean weight change ([1]; 6-week studies, pooled (overall summary)): -0.8 kg
mean change in weight at endpoint ([1]; 6-week studies, patients with nausea or vomiting): -1.7 kg
mean change in weight at endpoint ([1]; 6-week studies, patients without nausea or vomiting): -0.4 kg
Weight, Baseline Mean of subjects with Endpoint change ([2]; Bifeprunox 30 mg): 179.7 lbs
Weight, Baseline Mean of subjects with Week 6 change ([2]; Bifeprunox 30 mg): 172.6 lbs
Weight, Baseline, Max ([2]; Bifeprunox 30 mg): 358 lbs
Weight, Baseline, Mean (SD) ([2]; Bifeprunox 30 mg): 179.1 (62.4) lbs
Weight, Baseline, Median ([2]; Bifeprunox 30 mg): 171 lbs
Weight, Baseline, Min ([2]; Bifeprunox 30 mg): 77 lbs
Weight, Change from Baseline at Endpoint, Max ([2]; Bifeprunox 30 mg): 39 lbs
Weight, Change from Baseline at Endpoint, Mean (SD) ([2]; Bifeprunox 30 mg): −1.1 (7.4) lbs
Weight, Change from Baseline at Endpoint, Median ([2]; Bifeprunox 30 mg): 0 lbs
Weight, Change from Baseline at Endpoint, Min ([2]; Bifeprunox 30 mg): −22 lbs
Weight, Change from Baseline at Week 6, Max ([2]; Bifeprunox 30 mg): 39 lbs
Weight, Change from Baseline at Week 6, Mean (SD) ([2]; Bifeprunox 30 mg): −1.0 (8.9) lbs
Weight, Change from Baseline at Week 6, Median ([2]; Bifeprunox 30 mg): −2 lbs
Weight, Change from Baseline at Week 6, Min ([2]; Bifeprunox 30 mg): −18 lbs
incidence of markedly abnormal (≧7%) decrease in body weight ([2]; Bifeprunox 30 mg): 5%
incidence of markedly abnormal (≧7%) increase in body weight ([2]; Bifeprunox 30 mg): 5%
mean weight change at Endpoint ([2]; Bifeprunox 30 mg): −1.1 lbs
Weight, Baseline Mean of subjects with Endpoint change ([2]; bifeprunox 20 mg): 178.8 lbs
Weight, Baseline Mean of subjects with Week 6 change ([2]; bifeprunox 20 mg): 171.9 lbs
Weight, Baseline, Max ([2]; bifeprunox 20 mg): 393 lbs
Weight, Baseline, Mean (SD) ([2]; bifeprunox 20 mg): 180.6 (61.7) lbs
Weight, Baseline, Median ([2]; bifeprunox 20 mg): 176 lbs
Weight, Baseline, Min ([2]; bifeprunox 20 mg): 77 lbs
Weight, Change from Baseline at Endpoint, Max ([2]; bifeprunox 20 mg): 26 lbs
Weight, Change from Baseline at Endpoint, Mean (SD) ([2]; bifeprunox 20 mg): −2.3 (7.3) lbs
Weight, Change from Baseline at Endpoint, Median ([2]; bifeprunox 20 mg): −1 lbs
Weight, Change from Baseline at Endpoint, Min ([2]; bifeprunox 20 mg): −34 lbs
Weight, Change from Baseline at Week 6, Max ([2]; bifeprunox 20 mg): 26 lbs
Weight, Change from Baseline at Week 6, Mean (SD) ([2]; bifeprunox 20 mg): −3.3 (8.2) lbs
Weight, Change from Baseline at Week 6, Median ([2]; bifeprunox 20 mg): −1 lbs
Weight, Change from Baseline at Week 6, Min ([2]; bifeprunox 20 mg): −34 lbs
incidence of markedly abnormal (≧7%) decrease in body weight ([2]; bifeprunox 20 mg): 6%
incidence of markedly abnormal (≧7%) increase in body weight ([2]; bifeprunox 20 mg): 1%
mean weight change at Endpoint ([2]; bifeprunox 20 mg): −2.3 lbs
mean body weight (in words) ([2]; bifeprunox 20, 30 mg, 6 weeks): Small decreases in mean body weight
Change from Baseline in PANSS Negative Symptom Subscale Score, Mean (SD) ([3]; Bifeprunox 20 mg, Week 1): −1.5 (3.0)
Change from Baseline in PANSS Negative Symptom Subscale Score, Median ([3]; Bifeprunox 20 mg, Week 1): −1
Change from Baseline in PANSS Negative Symptom Subscale Score, Mean (SD) ([3]; Bifeprunox 20 mg, Week 2): −2.7 (3.6)
Change from Baseline in PANSS Negative Symptom Subscale Score, Median ([3]; Bifeprunox 20 mg, Week 2): −3
Change from Baseline in PANSS Negative Symptom Subscale Score, Mean (SD) ([3]; Bifeprunox 20 mg, Week 3): −3.2 (4.4)
Change from Baseline in PANSS Negative Symptom Subscale Score, Median ([3]; Bifeprunox 20 mg, Week 3): −3
Change from Baseline in PANSS Negative Symptom Subscale Score, Mean (SD) ([3]; Bifeprunox 20 mg, Week 4): −3.3 (4.8)
Change from Baseline in PANSS Negative Symptom Subscale Score, Median ([3]; Bifeprunox 20 mg, Week 4): −3
Change from Baseline in PANSS Negative Symptom Subscale Score, Mean (SD) [3, 5]: −3.3 (5.0)
Change from Baseline in PANSS Negative Symptom Subscale Score, Median [3, 5]: −3
Trt Effect (bifeprunox - placebo), PANSS Negative Symptom Subscale Score [3, 5]: −0.9
Change from Baseline in PANSS Negative Symptom Subscale Score, Mean (SD) ([3]; Bifeprunox 30 mg, Week 1): −1.3 (4.0)
Change from Baseline in PANSS Negative Symptom Subscale Score, Median ([3]; Bifeprunox 30 mg, Week 1): −1
Change from Baseline in PANSS Negative Symptom Subscale Score, Mean (SD) ([3]; Bifeprunox 30 mg, Week 2): −1.9 (4.3)
Change from Baseline in PANSS Negative Symptom Subscale Score, Median ([3]; Bifeprunox 30 mg, Week 2): −1
Change from Baseline in PANSS Negative Symptom Subscale Score, Mean (SD) ([3]; Bifeprunox 30 mg, Week 3): −2.5 (4.8)
Change from Baseline in PANSS Negative Symptom Subscale Score, Median ([3]; Bifeprunox 30 mg, Week 3): −2
Change from Baseline in PANSS Negative Symptom Subscale Score, Mean (SD) ([3]; Bifeprunox 30 mg, Week 4): −2.6 (5.0)
Change from Baseline in PANSS Negative Symptom Subscale Score, Median ([3]; Bifeprunox 30 mg, Week 4): −2
Change from Baseline in PANSS Negative Symptom Subscale Score, Mean (SD) [3, 6]: −3.1 (5.2)
Change from Baseline in PANSS Negative Symptom Subscale Score, Median [3, 6]: −2
Trt Effect (bifeprunox - placebo), PANSS Negative Symptom Subscale Score [3, 6]: −0.6
PANSS Negative Symptom subscale score, treatment effect (bifeprunox—placebo) ([3]; bifeprunox 20 mg): −0.9
mean change (SD) from Baseline to Endpoint in PANSS Negative Symptom subscale score ([3]; bifeprunox 20 mg): −3.3 (5.0)
PANSS Negative Symptom subscale score, treatment effect (bifeprunox—placebo) ([3]; bifeprunox 30 mg): −0.6
mean change (SD) from Baseline to Endpoint in PANSS Negative Symptom subscale score ([3]; bifeprunox 30 mg): −3.1 (5.2)
Change from Baseline in PANSS General Psychopathology Subscale Score, Mean (S.D.) ([4]; Endpoint LOCF): −4.4 (9.4)
Change from Baseline in PANSS General Psychopathology Subscale Score, Median ([4]; Endpoint LOCF): −5
Trt Effect (versus placebo), PANSS General Psychopathology Subscale Score ([4]; Endpoint LOCF, ANCOVA): −2.2
Change from Baseline in PANSS General Psychopathology Subscale Score, Mean (S.D.) ([4]; Week 1, LOCF): −1.7 (7.6)
Change from Baseline in PANSS General Psychopathology Subscale Score, Median ([4]; Week 1, LOCF): −2
Change from Baseline in PANSS General Psychopathology Subscale Score, Mean (S.D.) ([4]; Week 2, LOCF): −2.8 (8.1)
Change from Baseline in PANSS General Psychopathology Subscale Score, Median ([4]; Week 2, LOCF): −2
Change from Baseline in PANSS General Psychopathology Subscale Score, Mean (S.D.) ([4]; Week 3, LOCF): −3.3 (8.8)

Source: patent US20090068290A1, “BIFEPRUNOX DOSES FOR TREATING SCHIZOPHRENIA” (priority 2006, published 2009)
